Consider 27 compounds from patent publication US12516039B2, “N-linked isoquinoline amides as LRRK2 inhibitors, pharmaceutical compositions, and uses thereof” (Merck Sharp & Dohme LLC, priority 2020, dated 2026).

The target in this assay is T1, GST-tagged truncated human mutant G2019S LRRK2 (Homo sapiens, UniProt Q5S007, G2019S).
T1 construct: GST-tagged truncated human mutant G2019S LRRK2; purchased Life Technologies Corporation (Carlsbad, CA)
The assay can be described thus: LRRK2 G2019S Km ATP LanthaScreen assay. The note with it: 134 μM ATP (Km ATP), LRRKtide substrate, mean of several tests; for IC50: read-out: LRRK2 pIC50 (converted). The assay is classed as biochemical. A digest of the protocol: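 GST-tagged truncated human LRRK2 G2019S (1.25 nM enzyme solution) was preincubated 15 min with compound, then reacted 90 min at ambient temperature with fluorescein-LRRKtide (400 nM solution) and 134 μM ATP (Km) in Tris pH 8.5. EDTA stop; Tb anti-phospho-LRRKtide TR-FRET (520/495 ratio). IC50 from 4-parameter fits, mean of several runs.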

T1 sequence (Q5S007 970-2527 G2019S limits assumed): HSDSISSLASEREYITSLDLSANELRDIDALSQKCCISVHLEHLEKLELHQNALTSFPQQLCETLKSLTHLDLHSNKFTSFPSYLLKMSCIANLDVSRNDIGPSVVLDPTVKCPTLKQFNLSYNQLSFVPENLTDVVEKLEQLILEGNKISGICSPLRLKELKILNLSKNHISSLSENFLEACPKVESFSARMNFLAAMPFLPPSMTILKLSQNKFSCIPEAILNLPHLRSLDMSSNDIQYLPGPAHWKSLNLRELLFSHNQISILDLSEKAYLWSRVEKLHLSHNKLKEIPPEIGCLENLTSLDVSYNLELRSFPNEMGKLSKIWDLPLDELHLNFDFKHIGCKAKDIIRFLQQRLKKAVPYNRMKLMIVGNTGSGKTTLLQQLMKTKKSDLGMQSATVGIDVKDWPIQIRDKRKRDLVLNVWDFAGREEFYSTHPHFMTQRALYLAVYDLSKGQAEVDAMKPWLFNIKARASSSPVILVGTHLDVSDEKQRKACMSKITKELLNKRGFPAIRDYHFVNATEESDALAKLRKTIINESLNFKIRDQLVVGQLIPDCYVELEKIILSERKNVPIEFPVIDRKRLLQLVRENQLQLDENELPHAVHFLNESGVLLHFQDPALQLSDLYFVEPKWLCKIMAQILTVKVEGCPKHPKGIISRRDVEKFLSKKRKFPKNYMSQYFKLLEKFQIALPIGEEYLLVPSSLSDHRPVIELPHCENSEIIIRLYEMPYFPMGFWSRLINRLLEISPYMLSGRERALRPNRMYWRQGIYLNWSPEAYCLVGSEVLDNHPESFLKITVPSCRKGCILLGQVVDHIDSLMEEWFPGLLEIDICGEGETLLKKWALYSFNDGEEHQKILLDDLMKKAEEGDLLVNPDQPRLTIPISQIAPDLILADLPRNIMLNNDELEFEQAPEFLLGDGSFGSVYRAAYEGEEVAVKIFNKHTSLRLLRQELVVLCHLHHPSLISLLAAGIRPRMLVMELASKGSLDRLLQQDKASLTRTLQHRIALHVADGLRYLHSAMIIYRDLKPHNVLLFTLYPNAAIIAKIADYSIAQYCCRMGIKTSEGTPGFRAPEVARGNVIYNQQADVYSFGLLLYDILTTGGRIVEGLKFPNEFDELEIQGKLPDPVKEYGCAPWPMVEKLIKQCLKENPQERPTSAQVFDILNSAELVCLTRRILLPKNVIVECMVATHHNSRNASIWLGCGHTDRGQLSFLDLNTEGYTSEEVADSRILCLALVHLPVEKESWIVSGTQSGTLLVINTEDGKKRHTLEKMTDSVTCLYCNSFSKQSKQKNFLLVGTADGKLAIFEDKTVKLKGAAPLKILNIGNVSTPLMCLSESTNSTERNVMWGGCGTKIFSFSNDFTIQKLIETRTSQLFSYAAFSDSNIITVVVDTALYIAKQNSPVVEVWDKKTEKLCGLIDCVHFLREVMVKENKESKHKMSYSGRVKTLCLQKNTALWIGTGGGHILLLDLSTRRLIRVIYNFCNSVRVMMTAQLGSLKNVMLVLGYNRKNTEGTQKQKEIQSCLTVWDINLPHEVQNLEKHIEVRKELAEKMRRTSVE

As to `Cn1ncc(C2CC2C(=O)Nc2cc3cc(N4CCN(C5(C)COCC5O)CC4)c(Cl)cc3cn2)n1` (single isomer, unassigned) [Ex-16.1, (1S,2R or 1S,2S)-N-(N-(7-chloro-6-(4-(4-hydroxy-3-methyltetrahydrofuran-3-yl)piperazin-1-yl)isoquinolin-3-yl)-2-(2-methyl-2H-1,2,3-triazol-4-yl)cyclopropane-1-carboxamide], the IC50 is 0.145 nM. Still for that read-out and setting: with `COC1COCC1(C)N1CCN(c2cc3cc(NC(=O)C4CC45CCOCC5)ncc3cc2Cl)CC1` (single isomer, unassigned) [Ex-5.4] the figure was 28.8 nM; with `CCOC1CC1C(=O)Nc1cc2cc(N3CCN(C4(C)COCC4O)CC3)c(Cl)cc2cn1` (single isomer, unassigned) [Ex-10.12], 0.0832 nM; with `C[C@]1(O)COC[C@@]1(C)N1CCN(c2cc3cc(NC(=O)[C@@H]4CC45CCOCC5)ncc3cc2Cl)CC1` (single isomer, unassigned) [Ex-17.2, (R) or (S)-N-(7-chloro-6-((3R,4R) or (3S,4S)-4-(4-hydroxy-3,4-dimethyltetrahydrofuran-3-yl)piperazin-1-yl)isoquinolin-3-yl)-6-oxaspiro[2.5]octane-1-carboxamide], 0.126 nM. In the case of `Cc1cc2cnc(NC(=O)C3CC34CCOCC4)cc2cc1N1CCN(C2(C)COCC2O)[C@@H](C)C1` (stereo partly drawn) [Ex-6.10], the “LRRK2 pIC50” value was 9.26. Turning to `CCC1C(C(=O)Nc2cc3cc(N4CCN(C5(C)COCC5F)CC4)c(Cl)cc3cn2)C1c1ccn(C)n1` (single isomer, unassigned) [Ex-10.49, (1R,2R,3R, 1R,2S,3R, or 1S,2R,3S, or 1S,2S,3S)-N-[7-chloro-6-[4-((3R,4R or 3S,4S)-4-fluoro-3-methyl-tetrahydrofuran-3-yl)piperazin-1-yl]-3-isoquinolyl]-2-ethyl-3-(1-methylpyrazol-3-yl)cyclopropanecarboxamide], the IC50 was 0.0813 nM. Still for that read-out and setting: with `Cc1cc2cnc(NC(=O)C3C(C)C3c3cnn(C)c3)cc2cc1N1CCN(C2(C)CCOC2)CC1` (single isomer, unassigned) [Ex-9.13] the figure was 11.5 nM; with `CC1(C)CC(C(=O)Nc2cc3cc(N4CCN(C5(C)COCC5O)CC4)c(Cl)cc3cn2)CO1` (single isomer, unassigned) [Ex-1.22, (R or S)-N-(7-chloro-6-(4-((3R,4R or 3S,4S)-4-hydroxy-3-methyltetrahydrofuran-3-yl)piperazin-1-yl)isoquinolin-3-yl)-5,5-dimethyltetrahydrofuran-3-carboxamide], 1.17 nM; with `CC1(C)CC2(CCO1)CC2C(=O)Nc1cc2cc(N3CCN(C4(C)COCC4O)CC3)c(Cl)cc2cn1` (single isomer, unassigned) [Ex-7.3], 3.72 nM. Same read-out and setting: the result for `CC1C(C(=O)Nc2cc3cc(N4CCN(C5(C)CCOC5)CC4)c(Cl)cc3cn2)C1c1cnn(C)c1` (single isomer, unassigned) [Ex-9.9] reads 0.417 nM. For `CC1(N2CCN(c3cc4cc(NC(=O)C5CC5C5CCOCC5)ncc4cc3Cl)CC2)COCC1F` (single isomer, unassigned) [Ex-10.69, (1R,2R or 1S,2S)-N-[7-chloro-6-[4-((3R,4R or 3S,3S)-4-fluoro-3-methyl-tetrahydrofuran-3-yl)piperazin-1-yl]-3-isoquinolyl]-2-tetrahydropyran-4-yl-cyclopropanecarboxamide], the IC50 is 0.0813 nM.

For the compound `Cc1cc2cnc(NC(=O)C3CC3c3ccccn3)cc2cc1N1CCN(C2(C)CCOC2)CC1` (single isomer, unassigned) [Ex-9.18], the IC50 was 100 nM. On the same count and under the same terms, with `CC1(N2CCN(c3cc4cc(NC(=O)C5CC56CCC6)ncc4cc3Cl)CC2)COCC1O` (single isomer, unassigned) [Ex-1.7, (1R or 1S)-N-(7-chloro-6-(4-((3R,4R or 3S,4S)-4-hydroxy-3-methyltetrahydrofuran-3-yl)piperazin-1-yl)isoquinolin-3-yl)spiro[2.3]hexane-1-carboxamide] the figure was 6.61 nM. As for “(1R,2R,3R, or 1R,2S,3R, or 1S,2R,3S, or 1S,2S,3S)-N-[7-chloro-6-[4-((3R,4R or 3S,4S)-4-fluoro-3-methyl-tetrahydrofuran-3-yl)piperazin-4-ium-1-yl]-3-isoquinolyl]-2-methyl-3-(2-pyridyl)cyclopropanecarboxamide [Ex-10.71]”, the “LRRK2 pIC50” value came out at 7.72. As to `CC1(N2CCN(c3cc4cc(NC(=O)C5CC56CCOC6)ncc4cc3Cl)CC2)COCC1O` (single isomer, unassigned) [Ex-2.11, (1R,3R or 1S,3S)-N-(7-chloro-6-(4-((3R,4R or 3S,4S)-4-hydroxy-3-methyltetrahydrofuran-3-yl)piperazin-1-yl)isoquinolin-3-yl)-5-oxaspiro[2.4]heptane-1-carboxamide], the IC50 was 1.45 nM.

With `Cc1cc2cnc(NC(=O)C3CC3c3cnn(C)c3C(F)(F)F)cc2cc1N1CCN(C2(C)CCOC2)CC1` (single isomer, unassigned) [Ex-10.34, (1R,2R or 1S,2S)-N-[7-methyl-6-[4-((R or S)-3-methyltetrahydrofuran-3-yl)piperazin-1-yl]-3-isoquinolyl]-2-[1-methyl-5-(trifluoromethyl)pyrazol-4-yl]cyclopropanecarboxamide], the IC50 was 69.2 nM.

As to `CC1(O)CCN(c2cc3cc(NC(=O)C4CC4)ncc3cc2Cl)CC1` [Ex-4.2], the IC50 was 10.5 nM. The same measure, in the same setting: with `Cc1cc2cnc(NC(=O)C3CC3c3ccccn3)cc2cc1N1CCN(C2(C)CCOC2)CC1` (single isomer, unassigned) [Ex-9.17] the figure was 1.29 nM; with `Cc1cc2cnc(NC(=O)C3C4CCOCC43)cc2cc1N1CCN(C2(C)CCOC2)CC1` (single isomer, unassigned) [Ex-10.47, (1S,6R,7R, 1R,6S,7R, or 1R, 6S,7S, or 1S,6S,7S)-N-(7-methyl-6-(4-((R or S)-3-methyltetrahydrofuran-3-yl)piperazin-1-yl)isoquinolin-3-yl)-3-oxabicyclo[4.1.0]heptane-7-carboxamide], 10.2 nM; with `CC1(N2CCN(c3cc4cc(NC(=O)C5CC56CCCOC6)ncc4cc3Cl)CC2)COCC1O` (single isomer, unassigned) [Ex-1.11, (1R,3S, or 1R,3R, or 1S,3S, or 1S,3R)-N-(7-chloro-6-(4-((3R,4R or 3S,4S)-4-hydroxy-3-methyltetrahydrofuran-3-yl)piperazin-1-yl)isoquinolin-3-yl)-5-oxaspiro[2.5]octane-1-carboxamide], 1.7 nM. With `CC1(N2CCN(c3cc4cc(NC(=O)C5CCC5C#N)ncc4cc3Cl)CC2)COCC1F` (single isomer, unassigned) [Ex-10.68, (1R,2R or 1S,2S)-N-[7-chloro-6-[4-((3R,4R or 3S,4S)-4-fluoro-3-methyl-tetrahydrofuran-3-yl)piperazin-1-yl]-3-isoquinolyl]-2-cyano-cyclobutanecarboxamide], the IC50 was 0.0813 nM. On the same count and under the same terms, the result for `CC1(N2CCN(c3cc4cc(NC(=O)C5CC56CCCOC6)ncc4cc3Cl)CC2)COCC1O` (single isomer, unassigned) [Ex-1.12, (1R,3S, or 1R,3R, or 1S,3S, or 1S,3R)-N-(7-chloro-6-(4-((3R,4R or 3S,4S)-4-hydroxy-3-methyltetrahydrofuran-3-yl)piperazin-1-yl)isoquinolin-3-yl)-5-oxaspiro[2.5]octane-1-carboxamide] reads 3.72 nM; that for `C[C@H]1CN(c2cc3cc(NC(=O)C4CC45CCOCC5)ncc3cc2Cl)CCN1C1(C)COCC1O` (single isomer, unassigned) [Ex-2.21, (R or S)-N-(7-chloro-6-((S or R)-4-((3R,4R, or 3S,4S)-4-hydroxy-3-methyltetrahydrofuran-3-yl)-3-methylpiperazin-1-yl)isoquinolin-3-yl)-6-oxaspiro[2.5]octane-1-carboxamide], 0.589 nM; that for `CC1(N2CCN(c3cc4cc(NC(=O)C5CC5C(F)F)ncc4cc3Cl)CC2)COCC1F` (single isomer, unassigned) [Ex-10.78, (1R,2R or 1S,2S)-N-[7-chloro-6-[4-((3R,4R or 3S,4S)-4-fluoro-3-methyl-tetrahydrofuran-3-yl)piperazin-1-yl]-3-isoquinolyl]-2-(difluoromethyl)cyclopropanecarboxamide], 0.0813 nM. On the same count and under the same terms, with `Cn1ncc(C2CC2C(=O)Nc2cc3cc(N4CCN(C5(C)CCOC5)CC4)c(Cl)cc3cn2)c1C(F)(F)F` (single isomer, unassigned) [Ex-10.25, (1R,2R or 1S,2S)-N-[7-chloro-6-[4-((R or S)-3-methyltetrahydrofuran-3-yl)piperazin-4-ium-1-yl]-3-isoquinolyl]-2-[1-methyl-5-(trifluoromethyl)pyrazol-4-yl]cyclopropanecarboxamide] the figure was 3.72 nM; with `CCc1cc2cnc(NC(=O)C3CC34CCOCC4)cc2cc1N1CCN(C2(C)COCC2O)CC1` (single isomer, unassigned) [Ex-12, (R or S)-N-(7-ethyl-6-(4-(4-(3R,4R or 3S,4S)-hydroxy-3-methyltetrahydrofuran-3-yl)piperazin-1-yl)isoquinolin-3-yl)-6-oxaspiro[2.5]octane-1-carboxamide], 0.525 nM.

Take “(1R,2R,3R, or 1R,2S,3R, or 1S,2R,3S, or 1S,2S,3S)-N-[7-chloro-6-[4-((3R,4R or 3S,4S)-4-fluoro-3-methyl-tetrahydrofuran-3-yl)piperazin-4-ium-1-yl]-3-isoquinolyl]-2-methyl-3-(2-pyridyl)cyclopropanecarboxamide [Ex-10.72]”: the “LRRK2 pIC50” value amounted to 10.09.
